Assay results as given in US12594282B2, “Use of small molecule compounds in the treatment of diseases mediated by lung epithelial cell injury and/or vascular endothelial cell injury” (Guangzhou Cellprotek Pharmaceutical Co., Ltd., priority 2020, dated 2026).

Assays:
[1] = test system: rat vascular endothelial cells (RAOEC); assay: OGD-R injury model, LDH detection, RAOEC; format: cell-based; details: OGD 4 hours, restoration 24 hours, 1, 3, 10 μM, prophylactic (1 hour before OGD) or therapeutic (at restoration)
Method: HUVEC cells were cultured in modified DMEM medium containing 10% fetal bovine serum. When the cells reached about 80% confluence, the cells were digested with 0.25% trypsin, and then pipetted evenly with modified DMEM containing 10% fetal bovine serum. The cell concentration was adjusted to 1×10^5 cells/mL, and the cells were seeded at 400 uL/well in a 24-well plate, and the experiment was carried out when the cells grew to about 70% confluence. RAOEC cells were cultured in high-glucose DMEM medium containing 10% fetal bovine serum, and the seeding conditions were the same as those for HUVECs.
The hypoxia workstation was set to have an oxygen concentration of 1% (1% O2, 5% CO2, 94% N2), a temperature of 37° C., and a humidity of 85%. A sugar-free DMEM medium was placed in the hypoxia workstation for pre-hypoxia for 3 hours. The medium in the culture plate was aspirated, and the plate was washed twice with preheated sugar-free DMEM medium, and 100 uL of sugar-free DMEM medium was added to each well. […]
At the end of the experiment, 50 uL of medium was taken from each well into a 96-well plate, and then cytotoxicity was detected according to the operating instructions of the LDH detection kit. The results were calculated as follows: […]

[2] = test system: LPS-induced acute lung injury; assay: LPS-induced acute lung injury in rats (HE pathology, Smith score); format: in vivo, rat; details: for lung injury pathological score vs LPS model group: tail vein every 6 h x4, 24 h after LPS 6.4 mg/kg
Method: Animal grouping: 60 qualified rats with uniform body weight were selected and included in the experiment, and were randomly divided into 6 groups according to body weight, 10 rats/group. The animal grouping and the drug treatment dose of each group were as follows:
Drug administration: Test drugs were administered by tail vein at 0.3 mL/100 g body weight, hydrocortisone (25 mg/kg) was administered intraperitoneally at 0.5 mL/100 g body weight; the first administration for all the test agents were performed 0.5 h before LPS administration in the model. The test drug solvent and YC-6 were intravenously injected once every 6 h for a total of 4 injections, and the hydrocortisone (HC) group was intraperitoneally injected once every 12 h for a total of 2 injections.
After the rats were weighed and anesthetized by isoflurane, they were fixed in a supine position. The hair in the skin of the neck was removed, the skin of the neck was sterilized with 75% ethanol, and incised in the middle, after which the subcutaneous tissue was bluntly separated, and the upper trachea was exposed. 8 mg/mL LPS solution was injected into the trachea with a syringe, 0.2 mL/rat, and each rat was calculated as having body weight of […], and the dose was 6.4 mg/kg. Immediately after injection, the rats were erected, shaken, and rotated to distribute the LPS solution evenly in the lungs. The skin was sutured and disinfected with iodophor.
24 h after LPS injection, the animals were anesthetized by intraperitoneal injection of 20% […] solution at a volume of 6 mL/kg body weight. After the abdominal aorta was bled till the animal was dead, the thoracic cavity was exposed, and the lung tissue was collected. The left lung was fixed in 10% paraformaldehyde solution for 48 hours, after which the coronal plane of the left lung was cross-sectioned into two equal-width upper and lower parts, and then the lower half of the left lung was cross-sectioned into two equal-width parts according to the coronal plane. The sagittal plane of the upper half of the left lung and the coronal plane of the two lower half of the left lung were embedded in a paraffin block, sectioned and stained with hematoxylin-eosin (HE).
Tissue dehydration and paraffin embedding: The tissue was taken out of the fixative and successively immersed in 50% ethanol (30 min)-70% ethanol (overnight)-80% ethanol (30 min)-90% ethanol (30 min)-95% ethanol (30 min)-absolute ethanol (2 times, 30 min each time)-xylene (2 times, 5˜10 min each time, until the sample was completely transparent)-62° C. paraffin (3 times, 1 hour each time), followed by tissue embedding. Tissue paraffin sectioning: The thickness was 3 μm, the sections were dried on a microtome, and then placed in a 37° C. oven to dry overnight, and then used for HE staining. […]

[3] = 12, 40, 120 mg/kg/d, HE staining

C[C@@]12CCCC1C1C[C@@H](O)[C@]3(O)C[C@@H](O)CC[C@]3(C)C1CC2 (stereo partly drawn) [YC-6, 5α-androst-3β,5,6β-triol] was tested, and the “OGD-R-induced increase in LDH release” value [1] was “significantly reduced the OGD-R-induced increase in LDH release in a dose-dependent manner”, the “lung injury pathological score vs LPS model group” value ([2]; 12 mg/kg/d) was “significantly lower pathological scores” and the “lung injury pathological score vs LPS model group” value ([2]; 40 mg/kg/d) was “significantly lower pathological scores”. For the same molecule, the “lung injury pathological score vs LPS model group” value ([2]; 120 mg/kg/d) was “significantly lower pathological scores”, the “alveolar damage vs LPS model group” value [2, 3] was “reduced alveolar damage” and the “inflammatory cell infiltration in lung tissue vs LPS model group” value [2, 3] was “reduced inflammatory cell infiltration”. The “protective effect (pathological score) compared with 50 mg/kg/d hydrocortisone” value ([2]; low-dose group (12 mg/kg/d), P<0.05) was “significantly better protective effect”.
